From ChEMBL document CHEMBL1135352, “8-Anilinoimidazo[4,5-g]quinoline-7-carbonitriles as Src kinase inhibitors” (Bioorg Med Chem Lett, 2002)

How the values were obtained:
[1] = biological target: Receptor tyrosine-protein kinase erbB-2 (Homo sapiens, UniProt P04626); assay: Inhibition of ERBB2 receptor kinase
[2] = Inhibition of Dual specificity mitogen-activated protein kinase kinase MEK
[3] = biological target: Epidermal growth factor receptor (Homo sapiens, UniProt P00533); assay: Inhibition of Epidermal growth factor receptor kinase
[4] = biological target: Proto-oncogene tyrosine-protein kinase Src (Rattus norvegicus, UniProt Q9WUD9); assay: Inhibition of src kinase activity in Src transformed rat fibroblasts; format: functional
[5] = biological target: Proto-oncogene tyrosine-protein kinase Src (Homo sapiens, UniProt P12931); assay: Inhibition of Src protein tyrosine kinase activity
Sequence of Proto-oncogene tyrosine-protein kinase Src (Homo sapiens, UniProt P12931) (P12931 2-536 limits assumed): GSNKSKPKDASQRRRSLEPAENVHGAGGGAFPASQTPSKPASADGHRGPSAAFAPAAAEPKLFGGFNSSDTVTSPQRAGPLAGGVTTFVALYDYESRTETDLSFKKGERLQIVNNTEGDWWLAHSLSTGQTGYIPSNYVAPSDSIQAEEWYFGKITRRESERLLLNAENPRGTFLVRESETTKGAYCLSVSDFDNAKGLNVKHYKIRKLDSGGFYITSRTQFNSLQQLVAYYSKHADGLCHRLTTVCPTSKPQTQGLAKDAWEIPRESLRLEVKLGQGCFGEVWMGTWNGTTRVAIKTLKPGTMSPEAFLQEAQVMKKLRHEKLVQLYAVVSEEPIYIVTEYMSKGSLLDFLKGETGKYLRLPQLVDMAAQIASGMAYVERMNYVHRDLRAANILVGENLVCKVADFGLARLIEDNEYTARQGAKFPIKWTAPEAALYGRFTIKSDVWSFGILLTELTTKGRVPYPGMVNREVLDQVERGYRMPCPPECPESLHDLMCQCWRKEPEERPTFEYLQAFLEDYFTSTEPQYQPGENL

Sequence of Receptor tyrosine-protein kinase erbB-2 (P04626 whole entry): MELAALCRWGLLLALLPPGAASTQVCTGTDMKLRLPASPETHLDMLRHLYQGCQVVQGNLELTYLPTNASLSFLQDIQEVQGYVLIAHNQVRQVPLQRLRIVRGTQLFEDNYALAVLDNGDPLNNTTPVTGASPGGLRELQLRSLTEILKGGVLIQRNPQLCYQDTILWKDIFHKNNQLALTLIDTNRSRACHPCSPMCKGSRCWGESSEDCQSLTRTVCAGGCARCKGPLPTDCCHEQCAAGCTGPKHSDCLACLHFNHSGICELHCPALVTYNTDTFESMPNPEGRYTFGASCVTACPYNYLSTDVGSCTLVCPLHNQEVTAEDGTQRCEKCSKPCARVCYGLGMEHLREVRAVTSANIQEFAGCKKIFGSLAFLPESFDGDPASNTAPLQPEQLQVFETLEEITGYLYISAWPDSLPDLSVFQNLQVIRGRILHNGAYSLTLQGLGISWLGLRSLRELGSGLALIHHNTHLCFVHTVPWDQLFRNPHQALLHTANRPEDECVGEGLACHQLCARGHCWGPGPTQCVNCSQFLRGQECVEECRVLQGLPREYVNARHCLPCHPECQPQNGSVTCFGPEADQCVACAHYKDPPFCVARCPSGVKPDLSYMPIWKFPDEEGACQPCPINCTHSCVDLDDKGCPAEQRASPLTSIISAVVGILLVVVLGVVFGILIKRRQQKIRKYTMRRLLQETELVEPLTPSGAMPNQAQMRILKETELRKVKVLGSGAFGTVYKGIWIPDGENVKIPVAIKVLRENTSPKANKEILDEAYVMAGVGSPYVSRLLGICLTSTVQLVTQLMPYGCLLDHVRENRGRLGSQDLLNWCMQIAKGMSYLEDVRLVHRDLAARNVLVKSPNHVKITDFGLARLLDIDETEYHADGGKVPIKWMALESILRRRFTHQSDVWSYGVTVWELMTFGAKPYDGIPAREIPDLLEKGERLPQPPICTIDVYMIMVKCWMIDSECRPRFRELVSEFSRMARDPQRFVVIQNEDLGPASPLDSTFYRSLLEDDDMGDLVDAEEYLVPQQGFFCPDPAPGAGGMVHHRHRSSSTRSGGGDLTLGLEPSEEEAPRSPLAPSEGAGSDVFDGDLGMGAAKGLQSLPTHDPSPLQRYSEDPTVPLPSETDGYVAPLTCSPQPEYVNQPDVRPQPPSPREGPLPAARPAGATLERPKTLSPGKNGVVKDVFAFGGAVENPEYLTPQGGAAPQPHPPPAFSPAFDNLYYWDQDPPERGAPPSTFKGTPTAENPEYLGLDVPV
Sequence of Proto-oncogene tyrosine-protein kinase Src (Rattus norvegicus, UniProt Q9WUD9) (Q9WUD9 2-536 limits assumed): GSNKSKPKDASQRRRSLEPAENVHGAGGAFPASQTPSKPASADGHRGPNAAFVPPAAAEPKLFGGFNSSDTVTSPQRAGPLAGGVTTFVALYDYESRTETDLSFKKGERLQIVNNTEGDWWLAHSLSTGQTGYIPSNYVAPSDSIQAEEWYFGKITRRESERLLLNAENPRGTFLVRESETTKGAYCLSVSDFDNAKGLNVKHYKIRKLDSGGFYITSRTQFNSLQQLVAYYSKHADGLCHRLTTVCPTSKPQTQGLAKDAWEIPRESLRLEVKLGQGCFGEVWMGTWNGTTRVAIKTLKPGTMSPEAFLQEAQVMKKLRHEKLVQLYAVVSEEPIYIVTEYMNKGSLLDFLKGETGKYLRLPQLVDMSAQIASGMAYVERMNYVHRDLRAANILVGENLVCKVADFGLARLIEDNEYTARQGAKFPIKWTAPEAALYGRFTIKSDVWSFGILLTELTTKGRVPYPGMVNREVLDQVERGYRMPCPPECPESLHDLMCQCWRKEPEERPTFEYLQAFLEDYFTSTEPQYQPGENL
Sequence of Epidermal growth factor receptor (P00533 whole entry): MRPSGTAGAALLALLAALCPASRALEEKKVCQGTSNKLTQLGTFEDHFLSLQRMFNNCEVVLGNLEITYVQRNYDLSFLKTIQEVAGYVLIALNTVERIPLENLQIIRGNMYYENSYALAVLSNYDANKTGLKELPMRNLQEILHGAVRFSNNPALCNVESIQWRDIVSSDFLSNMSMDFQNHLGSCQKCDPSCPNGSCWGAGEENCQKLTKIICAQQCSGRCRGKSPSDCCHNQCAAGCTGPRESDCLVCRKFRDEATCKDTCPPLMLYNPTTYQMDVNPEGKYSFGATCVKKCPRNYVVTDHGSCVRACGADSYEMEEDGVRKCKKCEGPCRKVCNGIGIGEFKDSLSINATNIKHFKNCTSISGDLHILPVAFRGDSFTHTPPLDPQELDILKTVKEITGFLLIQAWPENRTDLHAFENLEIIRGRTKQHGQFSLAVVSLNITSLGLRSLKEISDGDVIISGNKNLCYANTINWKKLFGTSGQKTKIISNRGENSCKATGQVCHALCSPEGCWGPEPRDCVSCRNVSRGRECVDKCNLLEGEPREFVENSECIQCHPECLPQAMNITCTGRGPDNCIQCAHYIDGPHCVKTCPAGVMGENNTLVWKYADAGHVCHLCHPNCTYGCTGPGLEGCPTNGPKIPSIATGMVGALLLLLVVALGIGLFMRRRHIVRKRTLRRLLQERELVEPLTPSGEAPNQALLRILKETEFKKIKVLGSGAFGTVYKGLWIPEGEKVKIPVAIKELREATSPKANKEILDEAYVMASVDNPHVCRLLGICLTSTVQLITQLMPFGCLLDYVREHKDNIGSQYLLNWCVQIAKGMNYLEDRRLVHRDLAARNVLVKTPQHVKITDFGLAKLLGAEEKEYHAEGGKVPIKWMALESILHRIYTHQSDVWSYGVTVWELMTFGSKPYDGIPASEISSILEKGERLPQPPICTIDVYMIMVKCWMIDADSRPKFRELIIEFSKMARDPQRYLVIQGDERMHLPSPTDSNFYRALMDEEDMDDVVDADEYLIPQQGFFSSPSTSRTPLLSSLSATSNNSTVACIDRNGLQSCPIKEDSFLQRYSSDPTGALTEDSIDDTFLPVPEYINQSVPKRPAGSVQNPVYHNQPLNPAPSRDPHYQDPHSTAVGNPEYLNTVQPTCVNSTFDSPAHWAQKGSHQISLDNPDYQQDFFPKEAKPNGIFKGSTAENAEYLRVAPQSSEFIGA

| IC50 [1] [nM] | IC50 [2] [nM] | IC50 [3] [nM] | IC50 [4] [nM] | IC50 [5] [nM] | Compound |
| --- | --- | --- | --- | --- | --- |
| > 1000 | > 1000 | > 1000 | 670 | 9 | COc1cc(Nc2c(C#N)cnc3cc4c(cc23)ncn4CCN2CCOCC2)c(Br)cc1Cl |
| > 1000 | > 1000 | > 1000 | > 10000 | 67 | COc1ccc(C)c(Nc2c(C#N)cnc3cc4[nH]c(NCCN5CCOCC5)nc4cc23)c1 |
| > 1000 | > 1000 | > 1000 | 3900 | 29 | COc1cc(Nc2c(C#N)cnc3cc4c(cc23)ncn4CCN2CCOCC2)c(C)cc1Cl |
| > 1000 | > 1000 | > 1000 | > 10000 | 620 | COc1cc(Nc2c(C#N)cnc3cc4[nH]c(CN5CCOCC5)nc4cc23)cc(OC)c1OC |
| > 1000 | > 1000 | > 1000 | 1200 | 43 | COc1ccc(Cl)c(Nc2c(C#N)cnc3cc4c(cc23)ncn4CCN2CCOCC2)c1 |
| > 1000 | > 1000 | > 1000 | 10500 | 30 | COc1ccc(Cl)c(Nc2c(C#N)cnc3cc4[nH]cnc4cc23)c1 |
| > 1000 | > 1000 | > 1000 | 3300 | 120 | COc1ccc(C)c(Nc2c(C#N)cnc3cc4c(cc23)ncn4CCN2CCOCC2)c1 |
| > 1000 |  |  | > 10000 | 180 | COc1cc(Nc2c(C#N)cnc3cc4nc(NCCN5CCOCC5)[nH]c4cc23)cc(OC)c1OC |
| > 1000 | > 1000 | > 1000 | > 10000 | 330 | COc1cc(Nc2c(C#N)cnc3cc4[nH]cnc4cc23)cc(OC)c1OC |
| > 1000 | > 1000 | > 1000 | 2800 | 16 | COc1cc(Nc2c(C#N)cnc3cc4[nH]cnc4cc23)c(Br)cc1Cl |
| > 1000 | > 1000 | > 1000 | 10100 | 75 | N#Cc1cnc2cc3[nH]cnc3cc2c1Nc1ccc(Cl)cc1Br |
| > 1000 | > 1000 | > 1000 | > 10000 | 200 | COc1cc(Nc2c(C#N)cnc3cc4c(cc23)ncn4CCN2CCOCC2)cc(OC)c1OC |
